Measured values published in the supplement of paper PMC10307832.

Experiments:
Assay in all cases: relative viability (nuclei count vs DMSO), 5 days (fraction); higher = more cells survive
XMD14-99 + Linsitinib = compound: CN1CCN(CC1)C2=CC(=C(C=C2)NC3=NC(=C(S3)C(=O)C4=C(C=CC=C4Cl)Cl)N)OC [XMD14-99] + C[C@]1(O)C[C@@H](c2nc(-c3ccc4ccc(-c5ccccc5)nc4c3)c3c(N)nccn32)C1 [Linsitinib] (partner 1 µM)
Outline: (§1)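 Lung cancer cell lines in 1536-well plates were dosed by pin tool the day after seeding, either with one drug alone or with a fixed anchor-drug dose plus five library-drug doses (not always all listed) in √10 steps. After 5 days, cells were fixed and their nuclei stained in one step (final 0.05% Triton X-100, 1% formaldehyde, 1 ug/ml Hoechst), then counted on 4× images. Relative viability is the nuclei count in treated wells divided by that in vehicle wells. Values are medians of duplicate plates.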

XMD14-99 + Lapatinib = compound: CN1CCN(CC1)C2=CC(=C(C=C2)NC3=NC(=C(S3)C(=O)C4=C(C=CC=C4Cl)Cl)N)OC [XMD14-99] + CS(=O)(=O)CCNCc1ccc(-c2ccc3ncnc(Nc4ccc(OCc5cccc(F)c5)c(Cl)c4)c3c2)o1 [Lapatinib] (partner 2 µM)
Outline: as §1

XMD14-99 + Tozasertib = compound: CN1CCN(CC1)C2=CC(=C(C=C2)NC3=NC(=C(S3)C(=O)C4=C(C=CC=C4Cl)Cl)N)OC [XMD14-99] + Cc1cc(Nc2cc(N3CCN(C)CC3)nc(Sc3ccc(NC(=O)C4CC4)cc3)n2)n[nH]1 [Tozasertib] (partner 0.1 µM)
Outline: as §1

XMD14-99 + Bortezomib = compound: CN1CCN(CC1)C2=CC(=C(C=C2)NC3=NC(=C(S3)C(=O)C4=C(C=CC=C4Cl)Cl)N)OC [XMD14-99] + CC(C)C[C@H](NC(=O)[C@H](Cc1ccccc1)NC(=O)c1cnccn1)B(O)O [Bortezomib] (partner 0.002 µM)
Outline: as §1

XMD14-99 + Olaparib = compound: CN1CCN(CC1)C2=CC(=C(C=C2)NC3=NC(=C(S3)C(=O)C4=C(C=CC=C4Cl)Cl)N)OC [XMD14-99] + O=C(c1cc(Cc2n[nH]c(=O)c3ccccc23)ccc1F)N1CCN(C(=O)C2CC2)CC1 [Olaparib] (partner 8 µM)
Outline: as §1

| Cell Line | relative viability (XMD14-99 + Linsitinib; first compound 0.08 µM) | relative viability (XMD14-99 + Linsitinib; first compound 0.8 µM) | relative viability (XMD14-99 + Linsitinib; first compound 2.53 µM) | relative viability (XMD14-99 + Linsitinib; first compound 8 µM) | relative viability (XMD14-99 + Lapatinib; first compound 0.08 µM) | relative viability (XMD14-99 + Lapatinib; first compound 0.8 µM) | relative viability (XMD14-99 + Lapatinib; first compound 2.53 µM) | relative viability (XMD14-99 + Lapatinib; first compound 8 µM) | relative viability (XMD14-99 + Tozasertib; first compound 0.08 µM) | relative viability (XMD14-99 + Tozasertib; first compound 0.8 µM) | relative viability (XMD14-99 + Tozasertib; first compound 2.53 µM) | relative viability (XMD14-99 + Tozasertib; first compound 8 µM) | relative viability (XMD14-99 + Bortezomib; first compound 0.08 µM) | relative viability (XMD14-99 + Bortezomib; first compound 0.8 µM) | relative viability (XMD14-99 + Bortezomib; first compound 2.53 µM) | relative viability (XMD14-99 + Bortezomib; first compound 8 µM) | relative viability (XMD14-99 + Olaparib; first compound 0.08 µM) | relative viability (XMD14-99 + Olaparib; first compound 0.8 µM) | relative viability (XMD14-99 + Olaparib; first compound 2.53 µM) | relative viability (XMD14-99 + Olaparib; first compound 8 µM) |
| --- | --- | --- | --- | --- | --- | --- | --- | --- | --- | --- | --- | --- | --- | --- | --- | --- | --- | --- | --- | --- |
| SK-LU-1 | 0.872 | 1.2 | 1.07 | 0.671 | 0.969 | 0.841 | 0.74 | 0.565 | 0.34 | 0.298 | 0.355 | 0.254 | 1.43 | 1.42 | 1.03 | 0.943 | 0.423 | 0.459 | 0.374 | 0.34 |
| NCI-H1650 | – | – | – | – | 0.702 | 1.03 | 0.725 | 0.619 | 0.351 | 0.422 | 0.319 | 0.258 | 0.248 | 0.221 | 0.187 | 0.168 | 0.834 | 0.597 | 0.639 | 0.734 |
| NCI-H2170 | – | – | – | – | 0.263 | 0.27 | 0.245 | 0.259 | 0.702 | 0.667 | 0.696 | 0.575 | – | – | – | – | 0.543 | 0.565 | 0.537 | 0.466 |
| NCI-H1299 | 0.95 | 0.905 | 0.908 | 0.846 | 0.924 | 0.925 | 0.925 | 0.813 | – | – | – | – | 1.09 | 1 | 0.944 | 0.83 | 0.929 | 0.969 | 0.935 | 0.742 |
| EBC-1 | 0.885 | 0.77 | 0.762 | 0.702 | 0.252 | 0.207 | 0.2 | 0.173 | – | – | – | – | 0.57 | 0.503 | 0.384 | 0.285 | 0.771 | 0.635 | 0.646 | 0.382 |
